Assay results published in PubChem BioAssay AID1963441 (Molecular Pharmacology Branch, DTP, NCI, 2024).
Several values for one entry are separate records, joined by “and”; a condition that tells them apart may be missing. Equal entries are not always repeated.

System: NCI-H1876 complex spheroid growth, % test/control
Experiment: Anticancer human tumor NCI-H1876 cell line growth inhibition [Asc];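 also: compound exposure lasted 7 days starting three days after seeding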;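 as to viability, T/C: 100% = DMSO vehicle control wells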
Settings: for viability, T/C: stronger effect = lower value
In short: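 Tumor cells were grown as complex spheroids with human endothelial cells (HUVEC) and human mesenchymal stem cells as stroma. Agents were tested alone and in combination, in half-log steps down from the clinical Cmax, or from 10 microM where Cmax was unknown.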

Cn1ncnc1[C@H]1c2n[nH]c(=O)c3cc(F)cc(c23)N[C@@H]1c1ccc(F)cc1 + CCN1C(C(=O)NC23CCC(C(=O)O)(CC2)CC3)C(c2cccc(Cl)c2F)C2(C(=O)Nc3cc(Cl)ccc32)C12CCCCC2
IC50 (curve of first compound, second compound 0.00949 µM): > 0.1 µM
IC50 (curve of first compound, second compound 0.03 µM): > 0.1 µM
IC50 (curve of first compound, second compound 0.0949 µM): > 0.1 µM
IC50 (curve of first compound, second compound 0.3 µM): > 0.1 µM
IC50 (curve of first compound, second compound 0.949 µM): > 0.1 µM
IC50 (curve of first compound, second compound 3 µM): > 0.1 µM
viability, T/C (second compound 0.00949 µM, first compound 0.000316 µM): 123%
viability, T/C (second compound 0.00949 µM, first compound 0.001 µM): 89.9%
viability, T/C (second compound 0.00949 µM, first compound 0.00316 µM): 113%
viability, T/C (second compound 0.00949 µM, first compound 0.01 µM): 102%
viability, T/C (second compound 0.00949 µM, first compound 0.0316 µM): 100%
viability, T/C (second compound 0.00949 µM, first compound 0.1 µM): 91.6%
viability, T/C (second compound 0.03 µM, first compound 0.000316 µM): 100%
viability, T/C (second compound 0.03 µM, first compound 0.001 µM): 102%
viability, T/C (second compound 0.03 µM, first compound 0.00316 µM): 107%
viability, T/C (second compound 0.03 µM, first compound 0.01 µM): 92.6%
viability, T/C (second compound 0.03 µM, first compound 0.0316 µM): 106%
viability, T/C (second compound 0.03 µM, first compound 0.1 µM): 95.4%
viability, T/C (second compound 0.0949 µM, first compound 0.000316 µM): 101%
viability, T/C (second compound 0.0949 µM, first compound 0.001 µM): 99.4%
viability, T/C (second compound 0.0949 µM, first compound 0.00316 µM): 111%
viability, T/C (second compound 0.0949 µM, first compound 0.01 µM): 104%
viability, T/C (second compound 0.0949 µM, first compound 0.0316 µM): 113%
viability, T/C (second compound 0.0949 µM, first compound 0.1 µM): 89%
viability, T/C (second compound 0.3 µM, first compound 0.000316 µM): 103%
viability, T/C (second compound 0.3 µM, first compound 0.001 µM): 120%
viability, T/C (second compound 0.3 µM, first compound 0.00316 µM): 111%
viability, T/C (second compound 0.3 µM, first compound 0.01 µM): 114%
viability, T/C (second compound 0.3 µM, first compound 0.0316 µM): 110%
viability, T/C (second compound 0.3 µM, first compound 0.1 µM): 98.3%
viability, T/C (second compound 0.949 µM, first compound 0.000316 µM): 118%
viability, T/C (second compound 0.949 µM, first compound 0.001 µM): 134%
viability, T/C (second compound 0.949 µM, first compound 0.00316 µM): 117%
viability, T/C (second compound 0.949 µM, first compound 0.01 µM): 134%
viability, T/C (second compound 0.949 µM, first compound 0.0316 µM): 123%
viability, T/C (second compound 0.949 µM, first compound 0.1 µM): 91.6%
viability, T/C (second compound 3 µM, first compound 0.000316 µM): 103%
viability, T/C (second compound 3 µM, first compound 0.001 µM): 105%
viability, T/C (second compound 3 µM, first compound 0.00316 µM): 81.3%
viability, T/C (second compound 3 µM, first compound 0.01 µM): 95.5%
viability, T/C (second compound 3 µM, first compound 0.0316 µM): 95.2%
viability, T/C (second compound 3 µM, first compound 0.1 µM): 95.5%

O=C(c1cc(Cc2n[nH]c(=O)c3ccccc23)ccc1F)N1CCN(C(=O)C2CC2)CC1
viability, T/C (compound 0.0316 µM): 94.3% and 103% and 108%
viability, T/C (compound 0.1 µM): 84.8% and 92.7% and 94%
viability, T/C (compound 0.316 µM): 105% and 102% (2×)
viability, T/C (compound 1 µM): 115% and 118% and 99.5%
viability, T/C (compound 3.16 µM): 96.9% and 121% and 98.1%
viability, T/C (compound 10 µM): 75.5% and 85.2% and 68.7%
IC50 (curve of compound): > 10 µM

CCN1C(C(=O)NC23CCC(C(=O)O)(CC2)CC3)C(c2cccc(Cl)c2F)C2(C(=O)Nc3cc(Cl)ccc32)C12CCCCC2 (configuration not stated) + CNC(C)C(=O)NC1CN(S(=O)(=O)c2cccc(S(=O)(=O)N3CCC4CCC(C(=O)NC(c5ccccc5)c5ccccc5)N4C(=O)C(NC(=O)C(C)NC)C3)c2)CCC2CCC(C(=O)NC(c3ccccc3)c3ccccc3)N2C1=O
IC50 (curve of first compound, second compound 0.00316 µM): > 3 µM
IC50 (curve of first compound, second compound 0.01 µM): > 3 µM
IC50 (curve of first compound, second compound 0.0316 µM): > 3 µM
IC50 (curve of first compound, second compound 0.1 µM): > 3 µM
IC50 (curve of first compound, second compound 0.316 µM): > 3 µM
IC50 (curve of first compound, second compound 1 µM): > 3 µM
viability, T/C (second compound 0.00316 µM, first compound 0.00949 µM): 115%
viability, T/C (second compound 0.00316 µM, first compound 0.03 µM): 98%
viability, T/C (second compound 0.00316 µM, first compound 0.0949 µM): 111%
viability, T/C (second compound 0.00316 µM, first compound 0.3 µM): 101%
viability, T/C (second compound 0.00316 µM, first compound 0.949 µM): 123%
viability, T/C (second compound 0.00316 µM, first compound 3 µM): 107%
viability, T/C (second compound 0.01 µM, first compound 0.00949 µM): 110%
viability, T/C (second compound 0.01 µM, first compound 0.03 µM): 99.9%
viability, T/C (second compound 0.01 µM, first compound 0.0949 µM): 104%
viability, T/C (second compound 0.01 µM, first compound 0.3 µM): 101%
viability, T/C (second compound 0.01 µM, first compound 0.949 µM): 120%
viability, T/C (second compound 0.01 µM, first compound 3 µM): 105%
viability, T/C (second compound 0.0316 µM, first compound 0.00949 µM): 105%
viability, T/C (second compound 0.0316 µM, first compound 0.03 µM): 101%
viability, T/C (second compound 0.0316 µM, first compound 0.0949 µM): 115%
viability, T/C (second compound 0.0316 µM, first compound 0.3 µM): 104%
viability, T/C (second compound 0.0316 µM, first compound 0.949 µM): 132%
viability, T/C (second compound 0.0316 µM, first compound 3 µM): 109%
viability, T/C (second compound 0.1 µM, first compound 0.00949 µM): 92.5%
viability, T/C (second compound 0.1 µM, first compound 0.03 µM): 111%
viability, T/C (second compound 0.1 µM, first compound 0.0949 µM): 101%
viability, T/C (second compound 0.1 µM, first compound 0.3 µM): 102%
viability, T/C (second compound 0.1 µM, first compound 0.949 µM): 122%
viability, T/C (second compound 0.1 µM, first compound 3 µM): 103%
viability, T/C (second compound 0.316 µM, first compound 0.00949 µM): 104%
viability, T/C (second compound 0.316 µM, first compound 0.03 µM): 102%
viability, T/C (second compound 0.316 µM, first compound 0.0949 µM): 98.3%
viability, T/C (second compound 0.316 µM, first compound 0.3 µM): 105%
viability, T/C (second compound 0.316 µM, first compound 0.949 µM): 131%
viability, T/C (second compound 0.316 µM, first compound 3 µM): 107%
viability, T/C (second compound 1 µM, first compound 0.00949 µM): 112%
viability, T/C (second compound 1 µM, first compound 0.03 µM): 91.8%
viability, T/C (second compound 1 µM, first compound 0.0949 µM): 109%
viability, T/C (second compound 1 µM, first compound 0.3 µM): 110%
viability, T/C (second compound 1 µM, first compound 0.949 µM): 128%
viability, T/C (second compound 1 µM, first compound 3 µM): 97.9%

Cc1nc(N2CCC3(CC2)COC(C)C3N)c(CO)nc1Sc1ccnc(N)c1Cl (configuration not stated)
viability, T/C (compound 0.00949 µM): 102% and 105% and 103%
viability, T/C (compound 0.03 µM): 92.8% and 87.9% and 89.1%
viability, T/C (compound 0.0949 µM): 103% and 84.3% and 92.5%
viability, T/C (compound 0.3 µM): 79.5% and 84.7% and 86%
viability, T/C (compound 0.949 µM): 78.4% and 84% and 94.5%
viability, T/C (compound 3 µM): 75.5% and 87.1% and 88.2%
IC50 (curve of compound): > 3 µM

Cn1ncnc1[C@H]1c2n[nH]c(=O)c3cc(F)cc(c23)N[C@@H]1c1ccc(F)cc1
viability, T/C (compound 0.000316 µM): 93.5% and 106% and 102%
viability, T/C (compound 0.001 µM): 90.9% and 86.1% and 110%
viability, T/C (compound 0.00316 µM): 95.7% and 88.1% and 105%
viability, T/C (compound 0.01 µM): 102% and 96.1% and 94.6%
viability, T/C (compound 0.0316 µM): 98.4% and 99.3% and 105%
viability, T/C (compound 0.1 µM): 86% and 101% and 97.6%
IC50 (curve of compound): > 0.1 µM

C#Cc1c(F)ccc2cc(O)cc(-c3ncc4c(N5CC6CCC(C5)N6)nc(OCC56CCCN5CC(F)C6)nc4c3F)c12 (configuration not stated)
viability, T/C (compound 0.0316 µM): 104% (2×) and 97.2%
viability, T/C (compound 0.1 µM): 82.3% and 98.9% and 99.3%
viability, T/C (compound 0.316 µM): 112% and 115% and 94.7%
viability, T/C (compound 1 µM): 92.9% and 80.2% and 91%
viability, T/C (compound 3.16 µM): 90.2% and 97.4% and 102%
viability, T/C (compound 10 µM): 89.6% (2×) and 88.2%
IC50 (curve of compound): > 10 µM
